ChEMBL document CHEMBL3639166, “Heteroaryloxyheterocyclyl compounds as PDE10 inhibitors” (2013)

Each compound was assayed against T1, cAMP and cAMP-inhibited cGMP 3',5'-cyclic phosphodiesterase 10A (Rattus norvegicus, UniProt Q9QYJ6) (assay: Enzyme Inhibition Assay: Enzyme activity: An IMAP TR-FRET assay was used to analyze the enzyme activity (Molecular Devices Corp., Sunnyvale, Calif).).
T1 sequence (Q9QYJ6 whole entry): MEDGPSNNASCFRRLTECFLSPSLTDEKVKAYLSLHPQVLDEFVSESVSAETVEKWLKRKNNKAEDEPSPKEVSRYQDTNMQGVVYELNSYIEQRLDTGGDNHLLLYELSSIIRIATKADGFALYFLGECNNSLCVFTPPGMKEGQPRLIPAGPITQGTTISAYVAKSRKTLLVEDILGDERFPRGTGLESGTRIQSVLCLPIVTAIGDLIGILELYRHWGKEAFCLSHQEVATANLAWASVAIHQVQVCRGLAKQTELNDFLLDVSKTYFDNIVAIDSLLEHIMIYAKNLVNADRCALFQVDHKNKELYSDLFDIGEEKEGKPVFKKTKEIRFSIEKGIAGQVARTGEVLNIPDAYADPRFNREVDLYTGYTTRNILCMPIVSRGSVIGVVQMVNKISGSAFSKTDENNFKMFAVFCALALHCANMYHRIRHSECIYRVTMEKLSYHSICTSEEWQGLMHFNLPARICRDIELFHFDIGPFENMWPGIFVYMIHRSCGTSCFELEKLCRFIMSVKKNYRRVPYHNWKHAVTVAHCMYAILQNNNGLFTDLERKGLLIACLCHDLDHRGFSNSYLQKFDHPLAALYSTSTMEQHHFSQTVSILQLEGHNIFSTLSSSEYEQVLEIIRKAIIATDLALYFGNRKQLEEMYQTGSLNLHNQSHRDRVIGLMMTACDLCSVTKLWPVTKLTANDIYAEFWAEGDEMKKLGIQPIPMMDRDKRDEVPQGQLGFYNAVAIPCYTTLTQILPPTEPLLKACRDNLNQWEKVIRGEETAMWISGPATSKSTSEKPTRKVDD

Row | Structure (SMILES) | IC50
1 | CC(=O)N1CCC(c2nccnc2OC2CN(C(=O)c3ccc[nH]3)C2)CC1 | 139 nM
2 | CC(=O)N1CCCC(c2cccnc2OC2CN(C(=O)c3nc4ccccc4[nH]3)C2)C1 (stereo not drawn) | 6.47 nM
3 | COc1ncccc1-c1nccnc1OC1CN(c2ncc3ccccc3n2)C1 | 178 nM
4 | c1ccc2nc(N3CCC(Oc4nccnc4N4CCC4)CC3)ccc2c1 | 273 nM
5 | CC(=O)N1CCC(c2nccnc2OC2CCN(c3ncccc3Cl)CC2)CC1 | 1440 nM
6 | c1ccc2c(N3CC[C@H](Oc4nccnc4C4CCOCC4)C3)nccc2c1 | 819 nM
7 | CC(=O)N1CCC(c2cccnc2OC2CN(C(=O)OC(C)(C)C)C2)CC1 | 10200 nM
8 | c1cncc(-c2nccc(OC3CN(c4ccc5ccccc5n4)C3)n2)c1 | 35.6 nM
9 | CN1CCN(c2nccnc2OC2CN(c3ccc4ccccc4n3)C2)CC1 | 683 nM
10 | O=C(c1nc2ccccc2[nH]1)N1CC[C@@H](Oc2ncccc2C2CCOCC2)C1 | 1820 nM
11 | Cc1ccc(-c2nccnc2OC2CN(c3ccc4ccccc4n3)C2)cc1 | 98.7 nM
12 | c1ccc2nc(N3CC(Oc4nccnc4-c4ccc(OCC5CC5)nc4)C3)ccc2c1 | 50.2 nM
13 | O=C(c1nc2ccccc2[nH]1)N1CCC(Oc2nccnc2-c2ccncc2)CC1 | 230 nM
14 | CN(C)C(=O)c1ccc(-c2nccnc2OC2CN(c3ccc4ccccc4n3)C2)cc1 | 15 nM
15 | c1ccc2nc(N3CC(Oc4nccnc4N4CCCOCC4)C3)ccc2c1 | 44.6 nM
16 | CC(=O)N1CCC(c2nccnc2OC2CCN(c3cc(C)ccn3)CC2)CC1 | 997 nM
17 | OCC1CCCN(c2nccnc2OC2CN(c3ccc4ccccc4n3)C2)C1 (stereo not drawn) | 40.6 nM
18 | Fc1ccc(N2CCC(Oc3ncccc3C3CCOCC3)CC2)nc1 | 2960 nM
19 | c1cnc(O[C@H]2CCN(c3ccc4ccccc4n3)C2)c(C2CCOCC2)c1 | 340 nM
20 | Cc1cc(-c2nccnc2OC2CN(c3ccc4ccccc4n3)C2)ccn1 | 12.7 nM
21 | O=C(c1ccc2ccccc2n1)N1CCC(Oc2ncccc2C2CCOCC2)CC1 | 809 nM
22 | O=C(OCc1ccccc1)N1CCC(c2nc3ccccc3nc2OC2CN(c3ccc4ccccc4n3)C2)CC1 | 51.1 nM

Row | Structure (SMILES) | IC50
23 | c1cnc(OC2CN(c3ccc4ccccc4n3)C2)c(N2CCOCC2)c1 | 12 nM
24 | c1ccc2nc(N3CCC(Oc4nccnc4C4CCOCC4)CC3)ccc2c1 | 69.3 nM
25 | OC1CCN(c2nccnc2OC2CCN(c3ccc4ccccc4n3)CC2)CC1 | 198 nM
26 | COc1cccc(-c2nc3ccccc3nc2OC2CN(c3ccc4ccccc4n3)C2)c1 | 6.68 nM
27 | COc1ncc(-c2nccnc2OC2CN(c3ccc4ccccc4n3)C2)cn1 | 42.8 nM
28 | Cc1cc(-c2nccnc2OC2CCN(C(=O)c3nccc4ccccc34)CC2)ccn1 | 3590 nM
29 | c1ccc(-c2ccc(-c3nccnc3OC3CN(c4ccc5ccccc5n4)C3)s2)cc1 | 254 nM
30 | O=C1CCN(c2nccnc2OC2CCN(c3ccc4ccccc4n3)CC2)CC1 | 195 nM
31 | Clc1ccc(N2CCC(Oc3ncccc3C3CCOCC3)CC2)nc1 | 1410 nM
32 | c1ccc2c(N3CC[C@@H](Oc4nccnc4C4CCOCC4)C3)nccc2c1 | 4430 nM
33 | c1ccc2[nH]c(N3CC[C@H](Oc4nccnc4C4CCOCC4)C3)nc2c1 | 3930 nM
34 | Cc1cccc(C(=O)N2CCC(Oc3ncccc3C3CCOCC3)CC2)n1 | 1180 nM
35 | CC(=O)N1CCC(c2cccnc2OC2CN(C(=O)c3nc4ccccc4[nH]3)C2)CC1 | 102 nM
36 | Fc1cnc(OC2CN(c3ccc4ccccc4n3)C2)c(N2CCC(F)(F)CC2)c1 | 144 nM
37 | Nc1ncc2cc(-c3nccnc3OC3CN(c4ccc5ccccc5n4)C3)ccc2n1 | 3.3 nM
38 | O=C(c1nc2ccccc2[nH]1)N1CC[C@H](Oc2ncccc2C2CCOCC2)C1 | 409 nM
39 | c1ccc(-c2nccc(OC3CN(c4ccc5ccccc5n4)C3)n2)nc1 | 109 nM
40 | CC(C)C(=O)N1CCCC(c2cccnc2OC2CN(C(=O)c3nc4ccccc4[nH]3)C2)C1 (stereo not drawn) | 41.4 nM
41 | OCC1CCCN(c2ncc(Br)c(OC3CN(c4ccc5ccccc5n4)C3)n2)C1 (stereo not drawn) | 60 nM
42 | COC1CCN(c2nccnc2OC2CCN(c3ccc4ccccc4n3)CC2)CC1 | 59.6 nM
43 | CC(=O)N1CCC(c2nccnc2OC2CN(c3nc4ccccc4[nH]3)C2)CC1 | 690 nM
